Experimental data taken from publication PMC4467461, “Small-molecule activation of SERCA2a SUMOylation for the treatment of heart failure” (Nature Communications, 2015).

Columns and labels:
Serca2 KO mice = experiment: Invasive P–V loop haemodynamics in cardiac-specific Serca2a knockout mice; format: in vivo
Protocol: Figure 5 Lack of effects of N106 on haemodynamic parameters in cardiac-specific Serca2a knockout mice. Systolic and diastolic function was determined in conditional cardiac-specific Serca2a knockout mice by pressure–volume analysis. […] There was no significant change in haemodynamic parameters with N106 treatment after a single dose (1 mg kg^−1) (a-f) and different doses (0.1, 1 and 10 mg kg^−1) (g,h). Data are represented as mean±s.e.m. n=3∼8 mice per each condition. NS, not significant; Student’s t-test.
One day after echocardiography, we performed in-vivo haemodynamics. The mice were anaesthetized with an intraperitoneal injection mixture of urethane (1 mg g^−1), etomidate (10 μg g^−1) and morphine (1 μg g^−1), and were then intubated via a tracheotomy and mechanically ventilated at 7 μl g^−1 tidal volume and 120 respirations per minute. A small incision was made in the apex and a French Millar cathether connected a high-fidelity pressure transducer (Scisense, London, ON, Canada) inserted into the LV. Haemodynamic recordings were performed after 5∼10 min of stable HR. The rate of pressure rise (+dP/dt) and maximal pressure, the time constant of isovolumic relaxation and HR were recorded and analysed. To determine the relative effects of the admittance and conductance techniques to contractility change induced by N106 compound infusion, whole haemodynamic function was recorded at both baseline and after administration of N106 compound through the external jugular vein. N106 compound was solubilized in 10% DMSO (Sigma-Aldrich), 10% Tween-80 (Sigma-Aldrich) and saline for in-vivo experiments. N106 or vehicle solutions were continuously infused through the external jugular vein at a rate of 50 μl min^−1 for 2 min in each dose. Whole haemodynamic functions of increasing dose of N106 of each mouse were recorded for ∼4 h. Each dose of N106 solution was infused after back to baseline of heart function.

SERCA2a = SERCA2a ATPase activity assay (coupled enzyme) in cardiomyocytes; format: cell-based, Sprague–Dawley rats
Protocol: Figure 1 N106 increases SERCA2a’s cellular activity and SUMOylation in adult cardiomyocytes. In-vitro characterization of activators of SERCA2a SUMOylation. Cell-based screening of small molecules identified one promising compound. Adult ventricular cardiomyocytes were isolated from Sprague–Dawley rats and treated with small molecules on dose-dependent manner for 24 h. DMSO-treated cardiomyocytes were used as a negative control. (a) Chemical structure of SERCA2a SUMOylation activator. N106, N-(4-methoxybenzo[d]thiazol-2-yl)-5-(4-methoxyphenyl)-1,3,4-oxadiazol-2-amine. (b-g) The effects of N106 compound in cardiomyocyte contractility and calcium transient. The dose-dependent effects of N106 compound presented on peak shortening, the time to maximal departure velocity, the time to maximal return velocity, calcium ratio, decay time constant (τ) and the time to 90% baseline (t90) fluorescence in cardiomyocytes were assessed using a video-based edge-detection system (IonOptix Inc.). n=25 cardiomyocytes from each three of hearts per condition. […] The ATPase activity were measured at 25 °C in 50 mM MOPS, 100 mM KCl, 5 mM MgCl2, 1 mM […] at pCa 5.0 by using a coupled enzyme system consisting of pyruvate kinase and lactate dehydrogenase, and monitoring the oxidation of the reduced form of NADH at […]. The enzyme activity was determined by using same set of cardiomyocytes. […]

[1] = Serca2a knockout mice, 1 mg kg^−1

SERCA2a’s ATPase activity, time course (SERCA2a; 10 μM, 10∼30 min, sustained at 24 h): increased
SERCA2a ATPase activity (SERCA2a; increasing N106 concentration, 24 h, pCa 5.0): increased
Compound: COc1ccc(-c2nnc(Nc3nc4c(OC)cccc4s3)o2)cc1 [Compound N106, N-(4-methoxybenzo[d]thiazol-2-yl)-5-(4-methoxyphenyl)-1,3,4-oxadiazol-2-amine]
improvements in haemodynamic parameters (Serca2 KO mice; Serca2 KO, 1 mg kg^−1 and 0.1, 1 and 10 mg kg^−1): did not induce any improvements
+dP/dtmax (Serca2 KO mice; [1]): 2917.8±412.9 mm Hg s^−1
HR (Serca2 KO mice; [1]): 311.2±16.1 bpm
Pmax (Serca2 KO mice; [1]): 75.0±4.4 mm Hg
τ (Serca2 KO mice; [1]): 11.2 ± 1.0 ms
ESPVR slope (Serca2 KO mice; Serca2a knockout mice, 1 mg kg^−1 via jugular vein): 3.9±0.7 mm Hg μl^−1
